Read-outs that look alike come from different tables or passages of the source.
Experiments:
Assay type in all cases: biochemical
[1] = biological target: human ADAMTS6 (Homo sapiens (Human), UniProt Q9UKP5); assay: hADAMTS-6 520 MMP FRET substrate XII cleavage assay; conditions: 37° C. for 2 h, read-out: hADAMTS-6 potency IC50
In short: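 FRET cleavage of 520 MMP Substrate XII (Arg-Pro-Lys-Pro-Tyr-Ala-Nva-Trp-Met-Lys) by 0.73 nM enzyme in 25 mM Tris pH8.0, 0.05% CHAPS, 2.5 mM CaCl2. Compound dilution series from 20 μM top, 1/5 steps; substrate added from 1 μM stock, 2 h at 37° C. Fluorescence read at exc485/em530 for IC50.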

[2] = biological target: human ADAMTS-5 (Homo sapiens (Human), UniProt Q9UNA0); assay: hADAMTS-5 TBIS-1 cleavage assay, Protocol 3; conditions: Protocol 3, TBIS-1 substrate, 90 min at 37° C.; read-out: hADAMTS-5 potency IC50
Sequence of human ADAMTS-5 (Q9UNA0 262-930): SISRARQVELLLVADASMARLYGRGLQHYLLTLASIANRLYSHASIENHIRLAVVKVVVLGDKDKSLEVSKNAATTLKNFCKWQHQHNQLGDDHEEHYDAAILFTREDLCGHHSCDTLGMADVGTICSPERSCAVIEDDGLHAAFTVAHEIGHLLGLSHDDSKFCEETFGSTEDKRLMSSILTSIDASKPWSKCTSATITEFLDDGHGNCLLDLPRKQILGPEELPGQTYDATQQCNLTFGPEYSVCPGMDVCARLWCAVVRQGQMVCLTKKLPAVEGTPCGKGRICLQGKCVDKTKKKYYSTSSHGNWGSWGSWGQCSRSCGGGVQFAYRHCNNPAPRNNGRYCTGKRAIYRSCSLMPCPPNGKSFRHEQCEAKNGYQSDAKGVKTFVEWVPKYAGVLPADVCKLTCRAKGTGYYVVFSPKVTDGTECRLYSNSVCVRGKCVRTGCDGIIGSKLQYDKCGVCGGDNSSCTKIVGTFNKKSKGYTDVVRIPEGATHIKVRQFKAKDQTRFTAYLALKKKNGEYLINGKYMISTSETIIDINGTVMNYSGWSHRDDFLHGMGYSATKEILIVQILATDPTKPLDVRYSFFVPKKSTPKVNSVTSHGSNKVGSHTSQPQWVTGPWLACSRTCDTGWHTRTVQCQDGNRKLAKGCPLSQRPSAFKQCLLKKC
Method: The reaction is initiated by adding to the assay plate TBIS-1 (10 μL, 4.5 μM, Anaspec) in the same buffer.
Finally, the fluorescence is read on the Envision (Perkin Elmer) after an incubation of 90 min at 37° C. (Excitation 485 nm, emission 530).

[3] = biological target: human TACE (Homo sapiens (Human), UniProt P78536); assay: hTACE 5FAM-[…]-5TAMRA cleavage assay; conditions: 75 min at room temperature, read-out: hTACE potency IC50
Sequence of human TACE (P78536 215-671): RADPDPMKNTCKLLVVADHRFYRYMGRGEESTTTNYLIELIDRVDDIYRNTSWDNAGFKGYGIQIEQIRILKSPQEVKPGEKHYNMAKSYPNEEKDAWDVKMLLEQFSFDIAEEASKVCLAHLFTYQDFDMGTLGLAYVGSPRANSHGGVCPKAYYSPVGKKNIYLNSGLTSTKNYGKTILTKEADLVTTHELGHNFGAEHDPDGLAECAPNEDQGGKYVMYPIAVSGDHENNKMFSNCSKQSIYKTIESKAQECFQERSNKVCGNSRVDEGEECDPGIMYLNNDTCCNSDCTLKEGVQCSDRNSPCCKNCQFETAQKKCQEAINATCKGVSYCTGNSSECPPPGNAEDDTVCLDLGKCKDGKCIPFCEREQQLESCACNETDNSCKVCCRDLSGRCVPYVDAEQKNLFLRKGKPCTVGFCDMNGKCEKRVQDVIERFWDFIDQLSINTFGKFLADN
Method: Finally, the fluorescence is read on the Envision (Perkin Elmer) after an incubation of 75 min at room temperature (Excitation 485 nm, Emission 530).

[4] = biological target: human MMP13 (Homo sapiens (Human), UniProt P45452); assay: hMMP13 390 MMP FRET Substrate I cleavage assay, Protocol 2; conditions: Protocol 2, 390 MMP FRET Substrate I; read-out: hMMP-13 potency IC50
Method: The basis for the assay is the cleavage of the substrate 390 MMP FRET Substrate I (Anaspec Cat# AS-27076) by human MMP13 (Chemicon, Cat#CC068).
Human MMP13 is preactivated by incubated the enzyme in the same buffer complemented with 1 mM freshly prepared p-Aminophenylmercuric acetate (AMPA) for 1 h at 37° C.
(§1) The reaction is initiated by adding to the assay plate 390 MMP FRET Substrate I (10 μL, 2.5 μM) in the same buffer.
Finally, the fluorescence is read on the Envision (Perkin Elmer) after an incubation of 45 min at room temperature (Excitation 485 nm, Emission 530).

[5] = biological target: human MMP14 (Homo sapiens (Human), UniProt P50281); assay: hMMP14 390 MMP FRET Substrate I cleavage assay; conditions: 60 min at room temperature, read-out: hMMP-14 potency IC50
Method: The basis for the assay is the cleavage of the substrate 390 MMP FRET Substrate I (Anaspec Cat# AS-27076) by human MMP14 (Biomol, Cat#SE-259).
as §1
Finally, the fluorescence is read on the Envision (Perkin Elmer) after an incubation of 60 min at room temperature (Excitation 485 nm, Emission 530).

Sequence of human ADAMTS6 (Q9UKP5 other isoform, or with tags, fused parts or gaps): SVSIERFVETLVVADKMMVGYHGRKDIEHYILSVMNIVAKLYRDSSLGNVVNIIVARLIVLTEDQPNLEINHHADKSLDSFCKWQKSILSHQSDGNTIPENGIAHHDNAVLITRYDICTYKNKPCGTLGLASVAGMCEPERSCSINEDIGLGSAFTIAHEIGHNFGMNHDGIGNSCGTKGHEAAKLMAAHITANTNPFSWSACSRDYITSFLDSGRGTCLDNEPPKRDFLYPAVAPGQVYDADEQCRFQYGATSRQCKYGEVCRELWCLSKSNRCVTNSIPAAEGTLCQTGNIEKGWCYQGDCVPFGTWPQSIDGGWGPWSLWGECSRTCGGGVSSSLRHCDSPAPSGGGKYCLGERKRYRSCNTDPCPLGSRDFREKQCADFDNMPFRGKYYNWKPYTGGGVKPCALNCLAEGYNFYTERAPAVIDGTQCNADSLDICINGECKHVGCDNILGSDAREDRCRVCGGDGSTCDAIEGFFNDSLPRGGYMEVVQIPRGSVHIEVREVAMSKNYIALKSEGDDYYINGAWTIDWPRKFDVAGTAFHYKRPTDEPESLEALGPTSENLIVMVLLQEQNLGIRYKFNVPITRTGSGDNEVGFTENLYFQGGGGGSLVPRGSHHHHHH

IC50 [1] [nM] | IC50 [2] [nM] | IC50 ([3]; 5FAM-[…]-5TAMRA) [nM] | IC50 [4] [nM] | IC50 [5] [nM] | IC50 ([3]; 5FAM-LAQAVRSSSRK-5TAMRA) [nM] | Structure (SMILES)
0.001 to 25 | > 100 | 50 to 100 | > 100 | > 100 | – | COc1cc(Cl)c(Cl)cc1C1CCN(C(=O)CC[C@@]2(C)NC(=O)NC2=O)CC1 [Cpd 96, (5R)-5-[3-[4-(4,5-dichloro-2-methoxy-phenyl)-1-piperidyl]-3-oxo-propyl]-5-methyl-imidazolidine-2,4-dione]
0.001 to 25 | 50 to 100 | 25 to 50 | > 100 | > 100 | – | COc1cc(C2CCN(C(=O)CC[C@@]3(C)NC(=O)NC3=O)CC2)cc(Cl)c1F [Cpd 80, (5R)-5-[3-[4-(3-chloro-4-fluoro-5-methoxy-phenyl)-1-piperidyl]-3-oxo-propyl]-5-methyl-imidazolidine-2,4-dione]
0.001 to 25 | > 100 | – | > 100 | > 100 | > 100 | COc1cc(Cl)c(Cl)cc1C1CCN(C(=O)CC[C@H]2NC(=O)NC2=O)CC1 [Cpd 61, (R)-5-(3-(4-(4,5-dichloro-2-methoxyphenyl)piperidin-1-tl)-3-oxopropyl) imidazolidine-2,4-dione]
0.001 to 25 | 50 to 100 | 25 to 50 | > 100 | > 100 | – | COc1cc(C2CCN(C(=O)CC[C@@]3(C)NC(=O)NC3=O)CC2)cc(C)c1Cl [Cpd 98, (5R)-5-[3-[4-(4-chloro-3-methoxy-5-methyl-phenyl)-1-piperidyl]-3-oxo-propyl]-5-methyl-imidazolidine-2,4-dione]
0.001 to 25 | > 100 | – | > 100 | > 100 | > 100 | COc1cc(C2CCN(C(=O)CCC3(C)NC(=O)NC3=O)CC2)cc(Cl)c1F (centres unmarked) [Cpd 73, 5-(3-(4-(3-chloro-4-fluoro-5-methoxyphenyl)piperidin-1-yl)-3-oxopropyl)-5-methylimidazolidine-2,4-dione]
0.001 to 25 | > 100 | – | > 100 | > 100 | > 100 | COc1cc(Cl)c(F)cc1C1CCN(C(=O)CC[C@@]2(C)NC(=O)NC2=O)CC1 [Cpd 100, (5R)-5-[3-[4-(4-chloro-5-fluoro-2-methoxy-phenyl)-1-piperidyl]-3-oxo-propyl]-5-methyl-imidazolidine-2,4-dione]
0.001 to 25 | > 100 | 50 to 100 | > 100 | > 100 | – | Cc1cc(Cl)c(Cl)cc1C1CCN(C(=O)CCC2(C)NC(=O)NC2=O)CC1 (centres unmarked) [Cpd 71, 5-(3-(4-(4,5-dichloro-2-methylphenyl)piperidin-1-yl)-3-oxopropyl)-5-methylimidazolidine-2,4-dione]
> 100 | > 100 | – | > 100 | > 100 | > 100 | COc1c(Cl)cccc1C1CCN(C(=O)CC[C@H]2NC(=O)NC2=O)CC1 [Cpd 74, (R)-5-(3-(4-(3-chloro-2-methoxyphenyl)piperidin-1-yl)-3-oxopropyl) imidazolidine-2,4-dione]
0.001 to 25 | > 100 | 50 to 100 | > 100 | > 100 | – | COc1cc(Cl)c(C)cc1C1CCN(C(=O)CC[C@@]2(C)NC(=O)NC2=O)CC1 [Cpd 89, (5R)-5-[3-[4-(4-chloro-2-methoxy-5-methyl-phenyl)-1-piperidyl]-3-oxo-propyl]-5-methyl-imidazolidine-2,4-dione]
0.001 to 25 | > 100 | 50 to 100 | > 100 | > 100 | – | COc1cc(C2CCN(C(=O)CC[C@H]3NC(=O)NC3=O)CC2)cc(C)c1Cl [Cpd 115, (5R)-5-[3-[4-(4-chloro-3-methoxy-5-methyl-phenyl)-1-piperidyl]-3-oxo-propyl] imidazolidine-2,4-dione]
25 to 50 | > 100 | – | > 100 | > 100 | > 100 | Cc1cc(Cl)c(F)cc1C1CCN(C(=O)CCC2(C)NC(=O)NC2=O)CC1 (centres unmarked) [Cpd 64, 5-(3-(4-(4-chloro-5-fluoro-2-methylphenyl)piperidin-1-yl)-3-oxopropyl)-5-methyl-imidazolidine-2,4-dione]
0.001 to 25 | > 100 | 50 to 100 | > 100 | > 100 | – | CCc1cc(C2CCN(C(=O)CC[C@H]3NC(=O)NC3=O)CC2)cc(OC)c1Cl [Cpd 106, (5R)-5-[3-[4-(4-chloro-3-ethyl-5-methoxy-phenyl)-1-piperidyl]-3-oxo-propyl] imidazolidine-2,4-dione]
> 100 | > 100 | – | > 100 | > 100 | > 100 | COc1c(Cl)cccc1C1CCN(C(=O)CCC2(C)NC(=O)NC2=O)CC1 (centres unmarked) [Cpd 75, 5-(3-(4-(3-chloro-2-methoxyphenyl)piperidin-1-yl)-3-oxopropyl)-5-methylimidazolidine-2,4-dione]

Second part, the compound before the results:

Structure (SMILES) | IC50 [1] [nM] | IC50 [2] [nM] | IC50 ([3]; 5FAM-[…]-5TAMRA) [nM] | IC50 [4] [nM] | IC50 [5] [nM] | IC50 ([3]; 5FAM-LAQAVRSSSRK-5TAMRA) [nM]
COc1cc(C2CCN(C(=O)CCC3(C)NC(=O)NC3=O)CC2)cc(OC)c1F (centres unmarked) [Cpd 72] | 0.001 to 25 | > 100 | – | > 100 | > 100 | > 100
COc1cc(Cl)c(F)cc1C1CCN(C(=O)C(C)CC2(C)NC(=O)NC2=O)CC1 (centres unmarked) [Cpd 110, 5-[3-[4-(4-chloro-5-fluoro-2-methoxy-phenyl)-1-piperidyl]-2-methyl-3-oxo-propyl]-5-methyl-imidazolidine-2,4-dione] | 0.001 to 25 | 50 to 100 | 50 to 100 | > 100 | > 100 | –
Cc1cc(C2CCN(C(=O)CC[C@@]3(C)NC(=O)NC3=O)CC2)cc(C)c1Cl [Cpd 93, (5R)-5-[3-[4-(4-chloro-3,5-dimethyl-phenyl)-1-piperidyl]-3-oxo-propyl]-5-methyl-imidazolidine-2,4-dione] | 0.001 to 25 | > 100 | 50 to 100 | > 100 | > 100 | –
COc1cc(C2CCN(C(=O)[C@@H](C)C[C@@]3(C)NC(=O)NC3=O)CC2)cc(C)c1Cl (stereo in doubt) [Cpd 113, 5-[3-[4-(4-chloro-3-methoxy-5-methyl-phenyl)-1-piperidyl]-2-methyl-3-oxo-propyl]-5-methyl-imidazolidine-2,4-dione] | 0.001 to 25 | 25 to 50 | 50 to 100 | > 100 | > 100 | –
COc1cc(C2CCN(C(=O)CC[C@@]3(C)NC(=O)NC3=O)CC2)cc(OC)c1F [Cpd 81, (5R)-5-[3-[4-(4-fluoro-3,5-dimethoxy-phenyl)-1-piperidyl]-3-oxo-propyl]-5-methyl-imidazolidine-2,4-dione] | 0.001 to 25 | 50 to 100 | 25 to 50 | > 100 | > 100 | –
CCc1cc(C2CCN(C(=O)[C@@H](C)C[C@@]3(COC)NC(=O)NC3=O)CC2)cc(OC)c1Cl (stereo in doubt) [Cpd 104, 5-[3-[4-(4-chloro-3-ethyl-5-methoxy-phenyl)-1-piperidyl]-2-methyl-3-oxo-propyl]-5-(methoxymethyl) imidazolidine-2,4-dione] | 0.001 to 25 | 25 to 50 | 50 to 100 | > 100 | > 100 | –
COC[C@]1(C[C@H](C)C(=O)N2CCC(c3cc(F)c(Cl)c(OC)c3)CC2)NC(=O)NC1=O (stereo in doubt) [Cpd 103, 5-[3-[4-(4-chloro-3-fluoro-5-methoxy-phenyl)-1-piperidyl]-2-methyl-3-oxo-propyl]-5-(methoxymethyl) imidazolidine-2,4-dione] | 0.001 to 25 | 0.001 to 25 | 50 to 100 | > 100 | > 100 | –
COc1cc(C2CCN(C(=O)[C@@H](C)C[C@@]3(C)NC(=O)NC3=O)CC2)cc(F)c1Cl [Cpd 102] | 0.001 to 25 | 25 to 50 | 50 to 100 | > 100 | > 100 | –
COC[C@]1(C[C@H](C)C(=O)N2CCC(c3cc(C)c(Cl)c(OC)c3)CC2)NC(=O)NC1=O (stereo in doubt) [Cpd 114, 5-[3-[4-(4-chloro-3-methoxy-5-methyl-phenyl)-1-piperidyl]-2-methyl-3-oxo-propyl]-5-(methoxymethyl) imidazolidine-2,4-dione] | 0.001 to 25 | 25 to 50 | 50 to 100 | > 100 | > 100 | –
